ChEMBL document CHEMBL4406837, “Cyclin dependent kinase (CDK) inhibitors as anticancer drugs: Recent advances (2015-2019)” (Bioorg Med Chem Lett, 2019)
Blank lines part the entries; values can stand above or below the compound they belong to.

Assays:
[1] = target: Serine/threonine-protein kinase Nek10 (Homo sapiens, UniProt Q6ZWH5); assay: Binding affinity to NEK10 (unknown origin)
[2] = target: NUAK family SNF1-like kinase 2 (Homo sapiens, UniProt Q9H093); assay: Binding affinity to SNARK (unknown origin)
[3] = target: Receptor-type tyrosine-protein kinase FLT3 (Homo sapiens, UniProt P36888, D835V); assay: Binding affinity to human FLT3 D835V mutant
[4] = target: Receptor-type tyrosine-protein kinase FLT3 (Homo sapiens, UniProt P36888, ITD); assay: Binding affinity to human FLT3 ITD mutant
CDK9/Cyclin-H = CDK9/Cyclin-H (Homo sapiens, UniProt P50750+P51946); assay: Inhibition of CDK9/cyclin H (unknown origin); type: protein-complex assay
[5] = target: Cyclin-dependent kinase 4/cyclin D1 (Homo sapiens, UniProt P11802); assay: Inhibition of human CDK4/cyclinD1; type: protein-complex assay
[6] = target: T1, Cyclin-dependent kinase 2/cyclin E1 (Homo sapiens, UniProt P24941); assay: Inhibition of human CDK2/cyclin E; type: protein-complex assay
HCT-116 = assay: Anti-tumor activity in human HCT116 cells xenografted in in vivo animal model assessed tumor growth inhibition at 100 mg/kg, qd after 13 days relative to control; type: functional; conditions: HCT-116, 312 h, read-out: TGI
[7] = target: Cyclin-dependent kinase 6 (Homo sapiens, UniProt Q00534); assay: Competitive reversible inhibition of CDK6 (unknown origin)
[8] = target: Cyclin-dependent kinase 8 (Homo sapiens, UniProt P49336); assay: Competitive reversible inhibition of CDK8 (unknown origin)
[9] = target: Cyclin-dependent kinase 4 (Homo sapiens, UniProt P11802); assay: Competitive reversible inhibition of CDK4 (unknown origin)
[10] = target: Cyclin-dependent kinase 5 (Homo sapiens, UniProt Q00535); assay: Competitive reversible inhibition of CDK5 (unknown origin)
Hs 683 = assay: Antiproliferative activity against human Hs683 cells; type: functional, cell-based
MCF7 = assay: Antiproliferative activity against human MCF7 cells; type: functional, cell-based
OVCAR-3 = assay: Antiproliferative activity against human OVCAR3 cells; type: functional, cell-based
[11] = Antiproliferative activity against imatinib-resistant human K562R-2 cells; type: functional
[12] = target: T2, Cyclin-dependent kinase 2 (Homo sapiens, UniProt P24941); assay: Inhibition of CDK2 (unknown origin)
K562 = assay: Antiproliferative activity against wild type human K562 cells; type: functional, cell-based
[13] = Antiproliferative activity against imatinib-resistant human K562R-1 cells; type: functional
[14] = target: Cyclin-dependent kinase 1 (Homo sapiens) (UniProt P06493); assay: Inhibition of CDK1 (unknown origin) relative to control; conditions: concentration not given here
[15] = target: T2, Cyclin-dependent kinase 2; assay: Inhibition of CDK2 (unknown origin) relative to control; conditions: concentration not given here
CDK9/cyclin T1 [16] = target: T3, CDK9/cyclin T1 (Homo sapiens, UniProt P50750); assay: Competitive irreversible inhibition of CDK9/cyclin T (unknown origin) in presence of Km ATP; type: protein-complex assay
CDK7/Cyclin H/MNAT1 [17] = target: T4, CDK7/Cyclin H/MNAT1 (Homo sapiens, UniProt P50613); assay: Competitive irreversible inhibition of CDK7/cyclinH/MAT1 (unknown origin); type: protein-complex assay
CDK12/Cyclin K [18] = target: T5, CDK12/Cyclin K (Homo sapiens, UniProt Q9NYV4); assay: Competitive irreversible inhibition of CDK12/cyclinK (unknown origin) in presence of Km ATP; type: protein-complex assay
CDK7/Cyclin H/MNAT1 [19] = target: T4, CDK7/Cyclin H/MNAT1; assay: Competitive irreversible inhibition of CDK7/cyclinH/MAT1 (unknown origin) using 5-FAM YSPTSPSYSPTSPSYSPTSPSKKKK as substrate; type: protein-complex assay
HL-60 = assay: Antiproliferative activity against human HL60 cells after 72 hrs by CellTiter-Glo assay; type: functional, cell-based; conditions: HL-60, 72 h
[20] = Clearance in mouse; type: ADME, organism-based; conditions: in vivo
CDK7/Cyclin H/MNAT1 [21] = target: T4, CDK7/Cyclin H/MNAT1; assay: Competitive irreversible inhibition of CDK7/cyclinH/MAT1 (unknown origin) using 5-FAM YSPTSPSYSPTSPSYSPTSPSKKKK as substrate in presence of Km ATP; type: protein-complex assay
CDK7/Cyclin H/MNAT1 [22] = target: T4, CDK7/Cyclin H/MNAT1; assay: Competitive irreversible inhibition of CDK7/cyclinH/MAT1 (unknown origin) using 5-FAM YSPTSPSYSPTSPSYSPTSPSKKKK as substrate in presence of 2 mM ATP; type: protein-complex assay
[23] = target: T1, Cyclin-dependent kinase 2/cyclin E1; assay: Competitive reversible inhibition of CDK2/cyclin E (unknown origin); type: protein-complex assay
CDK7/Cyclin H/MNAT1 [24] = target: T4, CDK7/Cyclin H/MNAT1; assay: Competitive irreversible inhibition of CDK7/cyclinH/MAT1 (unknown origin) in presence of 1 mM ATP; type: protein-complex assay
CDK9/cyclin T1 [25] = target: T3, CDK9/cyclin T1; assay: Competitive irreversible inhibition of CDK9/cyclin T (unknown origin); type: protein-complex assay
[26] = target: T1, Cyclin-dependent kinase 2/cyclin E1; assay: Competitive irreversible inhibition of CDK2/cyclin E (unknown origin); type: protein-complex assay
CDK12/Cyclin K [27] = target: T5, CDK12/Cyclin K
[28] = target: Cyclin-dependent kinase 13/Cyclin-K (Homo sapiens, UniProt Q14004)
[29] = target: T6, CDK7/Cyclin H/MNAT1 (Homo sapiens) (UniProt P51946+P50613+P51948); assay: Competitive irreversible inhibition of CDK7/cyclinH/MAT1 (unknown origin) assessed as inactivation constant using 5-FAM YSPTSPSYSPTSPSYSPTSPSKKKK as substrate; type: protein-complex assay
[30] = target: T6, CDK7/Cyclin H/MNAT1 (Homo sapiens); assay: Ratio of Ki CDK7/cyclinH/MAT1 (unknown origin) to Kinact CDK7/cyclinH/MAT1 (unknown origin) assessed as inactivation constant; type: protein-complex assay
[31] = target: Cyclin-dependent kinase 14/Cyclin-Y (Homo sapiens, UniProt O94921+Q8ND76); assay: Competitive irreversible inhibition of CDK14/cyclin Y (unknown origin) in presence of Km ATP; type: protein-complex assay
[32] = target: T2, Cyclin-dependent kinase 2; assay: Binding affinity to CDK2 (unknown origin) assessed as association rate constant
[33] = target: T2, Cyclin-dependent kinase 2; assay: Binding affinity to CDK2 (unknown origin) assessed as dissociation rate constant
[34] = target: T2, Cyclin-dependent kinase 2; assay: Binding affinity to CDK2 (unknown origin) assessed as inactivation constant

T4 sequence (P51946 whole entry): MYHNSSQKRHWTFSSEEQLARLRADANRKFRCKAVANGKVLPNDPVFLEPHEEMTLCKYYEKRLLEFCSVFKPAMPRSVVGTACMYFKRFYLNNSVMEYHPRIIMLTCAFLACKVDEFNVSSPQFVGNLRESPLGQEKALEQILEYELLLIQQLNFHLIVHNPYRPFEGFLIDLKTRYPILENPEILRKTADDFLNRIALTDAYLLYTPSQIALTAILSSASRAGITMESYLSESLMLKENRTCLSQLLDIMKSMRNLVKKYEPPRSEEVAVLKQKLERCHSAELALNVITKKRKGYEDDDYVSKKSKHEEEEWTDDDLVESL
T4 sequence (P50613 whole entry): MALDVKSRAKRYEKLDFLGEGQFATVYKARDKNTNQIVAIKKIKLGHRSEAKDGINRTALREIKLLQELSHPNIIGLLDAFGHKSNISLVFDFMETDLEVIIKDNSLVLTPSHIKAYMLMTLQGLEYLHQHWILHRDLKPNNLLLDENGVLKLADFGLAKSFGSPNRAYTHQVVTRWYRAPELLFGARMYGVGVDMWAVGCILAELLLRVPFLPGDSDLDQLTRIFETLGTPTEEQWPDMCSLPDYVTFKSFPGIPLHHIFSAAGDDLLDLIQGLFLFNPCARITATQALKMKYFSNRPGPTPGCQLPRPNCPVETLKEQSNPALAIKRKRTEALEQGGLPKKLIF
T4 sequence (P51948 whole entry, further chain): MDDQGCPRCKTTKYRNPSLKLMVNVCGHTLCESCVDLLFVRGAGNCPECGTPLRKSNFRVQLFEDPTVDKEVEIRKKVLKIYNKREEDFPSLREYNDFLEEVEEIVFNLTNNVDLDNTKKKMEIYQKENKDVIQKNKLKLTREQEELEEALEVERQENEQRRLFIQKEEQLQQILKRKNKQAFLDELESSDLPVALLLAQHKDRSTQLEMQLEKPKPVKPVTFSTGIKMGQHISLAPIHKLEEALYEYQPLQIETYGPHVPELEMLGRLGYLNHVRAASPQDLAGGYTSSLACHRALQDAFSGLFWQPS
T3 sequence (O60563 whole entry): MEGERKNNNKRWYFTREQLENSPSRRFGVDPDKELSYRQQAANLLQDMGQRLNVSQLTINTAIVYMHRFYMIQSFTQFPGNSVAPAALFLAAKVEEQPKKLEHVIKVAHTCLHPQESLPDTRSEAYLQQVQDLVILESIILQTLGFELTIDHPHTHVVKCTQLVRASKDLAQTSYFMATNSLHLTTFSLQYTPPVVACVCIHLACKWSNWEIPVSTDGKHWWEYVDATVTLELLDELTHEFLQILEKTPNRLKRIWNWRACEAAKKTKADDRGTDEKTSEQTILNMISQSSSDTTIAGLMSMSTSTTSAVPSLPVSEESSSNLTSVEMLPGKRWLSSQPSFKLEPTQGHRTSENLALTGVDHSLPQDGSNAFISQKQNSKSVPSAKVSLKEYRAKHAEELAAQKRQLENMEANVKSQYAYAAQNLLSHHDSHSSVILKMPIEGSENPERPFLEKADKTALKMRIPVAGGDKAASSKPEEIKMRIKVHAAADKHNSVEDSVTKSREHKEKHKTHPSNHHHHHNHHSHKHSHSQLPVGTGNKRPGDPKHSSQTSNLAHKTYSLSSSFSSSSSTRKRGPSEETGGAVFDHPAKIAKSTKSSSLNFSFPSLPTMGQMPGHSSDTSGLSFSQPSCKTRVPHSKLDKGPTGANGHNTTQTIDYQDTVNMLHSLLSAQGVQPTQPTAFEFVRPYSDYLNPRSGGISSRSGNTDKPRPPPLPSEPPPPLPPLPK
T3 sequence (P50750 whole entry): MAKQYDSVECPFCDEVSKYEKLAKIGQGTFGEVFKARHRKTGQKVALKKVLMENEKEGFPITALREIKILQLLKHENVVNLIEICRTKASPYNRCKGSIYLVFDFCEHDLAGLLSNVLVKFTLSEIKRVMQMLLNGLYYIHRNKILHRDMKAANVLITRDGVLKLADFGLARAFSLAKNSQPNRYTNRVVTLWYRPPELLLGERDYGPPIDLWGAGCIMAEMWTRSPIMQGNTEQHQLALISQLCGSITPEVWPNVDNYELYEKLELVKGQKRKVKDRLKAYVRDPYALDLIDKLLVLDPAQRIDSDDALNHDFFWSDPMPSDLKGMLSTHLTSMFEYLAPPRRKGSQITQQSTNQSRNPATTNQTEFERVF
Sequence of Cyclin-dependent kinase 5 (Q00535 whole entry): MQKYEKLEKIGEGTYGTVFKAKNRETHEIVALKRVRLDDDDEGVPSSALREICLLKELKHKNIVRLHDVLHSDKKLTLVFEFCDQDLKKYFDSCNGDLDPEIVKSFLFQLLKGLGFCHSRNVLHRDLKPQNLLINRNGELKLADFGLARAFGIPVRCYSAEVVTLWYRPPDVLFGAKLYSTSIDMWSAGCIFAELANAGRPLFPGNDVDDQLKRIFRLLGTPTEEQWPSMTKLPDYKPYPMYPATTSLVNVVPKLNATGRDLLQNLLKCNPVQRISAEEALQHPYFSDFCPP
Sequence of Cyclin-dependent kinase 8 (P49336 whole entry): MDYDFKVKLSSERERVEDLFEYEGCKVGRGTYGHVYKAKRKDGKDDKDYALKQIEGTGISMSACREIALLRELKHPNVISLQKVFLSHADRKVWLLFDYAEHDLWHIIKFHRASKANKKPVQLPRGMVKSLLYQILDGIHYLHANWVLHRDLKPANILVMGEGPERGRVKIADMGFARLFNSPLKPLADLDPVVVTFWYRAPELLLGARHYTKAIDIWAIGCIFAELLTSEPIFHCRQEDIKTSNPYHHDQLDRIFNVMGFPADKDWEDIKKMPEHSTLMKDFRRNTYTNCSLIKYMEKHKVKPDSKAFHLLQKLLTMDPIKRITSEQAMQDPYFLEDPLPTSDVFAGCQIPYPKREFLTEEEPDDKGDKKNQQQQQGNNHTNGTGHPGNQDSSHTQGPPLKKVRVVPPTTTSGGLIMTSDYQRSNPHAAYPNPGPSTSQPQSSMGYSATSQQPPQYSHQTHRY
T5 sequence (O75909 whole entry): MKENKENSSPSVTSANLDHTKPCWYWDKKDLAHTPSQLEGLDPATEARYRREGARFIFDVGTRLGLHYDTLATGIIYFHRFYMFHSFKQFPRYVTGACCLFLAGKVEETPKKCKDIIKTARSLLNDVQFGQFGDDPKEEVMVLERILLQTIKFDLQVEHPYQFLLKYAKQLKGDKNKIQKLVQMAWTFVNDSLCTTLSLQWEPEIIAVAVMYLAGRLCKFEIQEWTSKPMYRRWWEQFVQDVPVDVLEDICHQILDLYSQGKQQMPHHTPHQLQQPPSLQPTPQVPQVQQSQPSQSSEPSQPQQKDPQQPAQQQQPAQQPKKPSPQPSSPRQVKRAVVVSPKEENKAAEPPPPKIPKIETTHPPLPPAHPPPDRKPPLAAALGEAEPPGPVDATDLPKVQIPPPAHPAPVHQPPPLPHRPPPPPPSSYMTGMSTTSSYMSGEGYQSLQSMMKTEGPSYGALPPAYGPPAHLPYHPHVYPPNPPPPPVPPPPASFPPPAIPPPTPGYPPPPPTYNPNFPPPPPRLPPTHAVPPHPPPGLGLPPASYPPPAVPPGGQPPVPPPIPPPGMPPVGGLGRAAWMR
T5 sequence (Q9NYV4 whole entry): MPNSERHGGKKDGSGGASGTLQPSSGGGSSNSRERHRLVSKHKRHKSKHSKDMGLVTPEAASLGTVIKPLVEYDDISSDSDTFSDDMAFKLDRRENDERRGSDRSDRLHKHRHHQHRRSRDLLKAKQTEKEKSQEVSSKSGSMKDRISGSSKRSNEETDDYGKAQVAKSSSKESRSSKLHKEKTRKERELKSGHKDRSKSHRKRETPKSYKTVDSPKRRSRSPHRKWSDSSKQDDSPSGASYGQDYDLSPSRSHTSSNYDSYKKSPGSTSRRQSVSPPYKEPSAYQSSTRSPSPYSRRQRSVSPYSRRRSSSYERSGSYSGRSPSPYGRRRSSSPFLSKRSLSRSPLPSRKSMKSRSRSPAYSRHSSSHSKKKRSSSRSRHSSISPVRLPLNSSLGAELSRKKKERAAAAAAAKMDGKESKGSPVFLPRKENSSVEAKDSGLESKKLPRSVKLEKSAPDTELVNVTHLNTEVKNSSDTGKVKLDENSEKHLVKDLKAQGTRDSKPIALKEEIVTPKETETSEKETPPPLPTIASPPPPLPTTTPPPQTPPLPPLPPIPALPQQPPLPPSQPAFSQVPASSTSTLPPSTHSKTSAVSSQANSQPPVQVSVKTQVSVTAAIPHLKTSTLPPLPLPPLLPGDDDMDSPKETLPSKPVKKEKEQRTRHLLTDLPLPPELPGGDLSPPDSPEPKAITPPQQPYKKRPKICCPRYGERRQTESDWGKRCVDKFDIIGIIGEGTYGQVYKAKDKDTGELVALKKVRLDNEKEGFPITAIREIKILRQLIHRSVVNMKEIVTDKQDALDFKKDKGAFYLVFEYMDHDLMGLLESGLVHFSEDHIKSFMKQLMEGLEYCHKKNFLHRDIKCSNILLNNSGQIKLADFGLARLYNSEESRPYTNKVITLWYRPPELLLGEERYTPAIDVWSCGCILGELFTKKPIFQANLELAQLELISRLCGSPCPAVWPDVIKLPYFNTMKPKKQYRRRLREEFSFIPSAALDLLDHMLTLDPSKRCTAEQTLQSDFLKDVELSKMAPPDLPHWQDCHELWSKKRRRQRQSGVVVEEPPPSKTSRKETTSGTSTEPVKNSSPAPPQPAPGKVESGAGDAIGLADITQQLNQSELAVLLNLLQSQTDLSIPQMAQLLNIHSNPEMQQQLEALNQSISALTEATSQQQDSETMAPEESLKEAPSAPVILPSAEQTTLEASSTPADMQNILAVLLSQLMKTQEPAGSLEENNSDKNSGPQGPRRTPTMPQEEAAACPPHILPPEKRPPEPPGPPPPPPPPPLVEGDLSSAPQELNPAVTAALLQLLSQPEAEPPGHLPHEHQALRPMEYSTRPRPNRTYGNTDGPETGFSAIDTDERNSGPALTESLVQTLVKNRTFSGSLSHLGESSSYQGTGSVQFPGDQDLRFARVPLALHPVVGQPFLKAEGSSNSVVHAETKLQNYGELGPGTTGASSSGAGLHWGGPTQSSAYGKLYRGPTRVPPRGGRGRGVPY
Sequence of CDK9/Cyclin-H (P51946 whole entry): as the sequence (P51946 whole entry) above
Sequence of CDK9/Cyclin-H (P50750 whole entry): as the sequence (P50750 whole entry) above

IC50 [7]: 34 µM | IC50 [8]: 1200 nM | IC50 [9]: 49 µM | IC50 [10]: 9.4 µM
Structure (SMILES): CC(C)c1cnn2c(NCc3ccccc3)cc(NC[C@H]3CCNC[C@@H]3O)nc12 [CT-7001]
inhibition in vivo at 100 mg/kg (HCT-116): 60%

IC50 [8]: 90 nM
Structure (SMILES): CC(C)c1cnn2c(NCc3ccccc3)cc(N[C@@H](CO)[C@H](O)CO)nc12

IC50 [12]: 2 to 60 nM | IC50 (K562): 669 nM
Structure (SMILES): O=C1Nc2ccc([N+](=O)[O-])cc2/C1=C1/Nc2ccc(O)cc2/C1=N\O
IC50 [11]: 711 nM | IC50 [13]: 856 nM

inhibition [14]: 2% | inhibition [15]: 83%
Structure (SMILES): C=CC(=O)N1CCN(C(=O)OC(C)(C)C)c2ccccc21

inhibition [14]: -2% | inhibition [15]: 5%
Structure (SMILES): C=CC(=O)N1CCN(C(=O)OC)c2ccccc21

EC50 (CDK7/Cyclin H/MNAT1 [17]): 13 nM | IC50 (CDK12/Cyclin K [18]): 20 nM | IC50 (CDK9/cyclin T1 [16]): 914 nM | Ki (CDK7/Cyclin H/MNAT1 [19]): 17.4 nM | EC50 (HL-60): 8 nM | clearance [20]: 6 mL/min/kg | IC50 (CDK7/Cyclin H/MNAT1 [21]): 84 nM | IC50 (CDK7/Cyclin H/MNAT1 [22]): 590 nM
Structure (SMILES): CN(C)C/C=C/C(=O)Nc1ccc(C(=O)N[C@@]2(C)CCC[C@@H](Nc3ncc(Cl)c(-c4c[nH]c5ccccc45)n3)C2)nc1

EC50 (CDK7/Cyclin H/MNAT1 [17]): 48 nM | IC50 (CDK12/Cyclin K [18]): 312 nM | IC50 (CDK9/cyclin T1 [16]): 627 nM | Kinact [29]: 4.8 h⁻¹ | Ki (CDK7/Cyclin H/MNAT1 [19]): 105 nM | Ratio [30]: 0.013 µM⁻¹ s⁻¹ | EC50 (HL-60): 13 nM | clearance [20]: 17 mL/min/kg | IC50 (CDK7/Cyclin H/MNAT1 [21]): 112 nM | IC50 (CDK7/Cyclin H/MNAT1 [22]): 908 nM
Structure (SMILES): CN(C)C/C=C/C(=O)Nc1ccc(C(=O)N[C@H]2CCC[C@@H](Nc3ncc(Cl)c(-c4c[nH]c5ccccc45)n3)C2)cc1

EC50 (CDK7/Cyclin H/MNAT1 [17]): 4 nM | IC50 (CDK9/cyclin T1 [16]): 226 nM | Kinact [29]: 11.3 h⁻¹ | Ki (CDK7/Cyclin H/MNAT1 [19]): 62.5 nM | Ratio [30]: 0.05 µM⁻¹ s⁻¹ | EC50 (HL-60): 3 nM | clearance [20]: 29 mL/min/kg | IC50 (CDK7/Cyclin H/MNAT1 [21]): 23 nM | IC50 (CDK7/Cyclin H/MNAT1 [22]): 205 nM
Structure (SMILES): CN(C)C/C=C/C(=O)Nc1ccc(C(=O)N[C@H]2CCC[C@@H](Nc3ncc(Cl)c(-c4c[nH]c5ccccc45)n3)C2)nc1

The remaining lines, values behind:

Structure (SMILES): CC(C)N1CCN(c2ccc(Nc3ncc4cc5n(c4n3)C3(CCCCC3)CNC5=O)nc2)CC1 [LEROCICLIB]
Kd [1]: 0.2 nM | Kd [2]: 0.7 nM | Kd [3]: 22 nM | Kd [4]: 6.5 nM | IC50 (CDK9/Cyclin-H): 280 nM | EC50 [5]: < 100 nM | EC50 [6]: < 100 nM

Structure (SMILES): CN1CCN(c2ccc(Nc3ncc4cc5n(c4n3)C3(CCCCC3)CNC5=O)nc2)CC1 [TRILACICLIB]
IC50 (Hs 683): 30 nM

Structure (SMILES): C[C@@]1(O)CCC[C@H]1n1c(=O)c(C(F)F)cc2cnc(NC3CCN(S(C)(=O)=O)CC3)nc21 [EBVACICLIB]
IC50 (MCF7): 48 nM | IC50 (OVCAR-3): 48 nM

Structure (SMILES): CN(C)C/C=C/C(=O)Nc1ccc(C(=O)N2CCC[C@@H](Nc3ncc(Cl)c(-c4c[nH]c5ccccc45)n3)C2)cc1
IC50 (CDK9/cyclin T1 [16]): 834 nM

Structure (SMILES): CC[C@H](Nc1nc(NCc2cnc(C)cc2C)c2ncn(C(C)C)c2n1)[C@@H](C)O [CYC-065]
IC50 [23]: 5 nM | IC50 [10]: 0.023 µM

Structure (SMILES): C=CC(=O)Nc1ccc(C(=O)Nc2n[nH]c3c2CN(C(=O)N[C@H](CN(C)C)c2ccccc2)C3(C)C)cc1
IC50 (CDK7/Cyclin H/MNAT1 [24]): 53 nM

Structure (SMILES): C=CC(=O)Nc1cccc(Nc2cc(N3CCCC[C@H]3CCO)nc3c(CC)cnn23)c1
IC50 (CDK9/cyclin T1 [25]): 20 nM | IC50 [26]: 932 nM

Structure (SMILES): CN(C)C/C=C/C(=O)Nc1ccc(C(=O)Nc2cccc(Nc3ncc(Cl)c(-c4c[nH]c5ccccc45)n3)c2)cc1
IC50 (CDK12/Cyclin K [18]): 371 nM | EC50 (HL-60): 38 nM | clearance [20]: 129 mL/min/kg | IC50 (CDK12/Cyclin K [27]): 893 nM | IC50 [28]: 628 nM

Structure (SMILES): CN(C)C/C=C/C(=O)Nc1cccc(S(=O)(=O)N2CCC(NC(=O)c3n[nH]cc3NC(=O)c3c(Cl)cc(Cl)cc3Cl)CC2)c1
IC50 [31]: 88 nM

Structure (SMILES): C=CS(=O)(=O)c1ccc(Nc2nc(OCC3CCCCC3)c3nc[nH]c3n2)cc1
K [32]: 0.55 ×10⁶ /M/s | K [33]: 0.07 s⁻¹ | Kinact [34]: 5 ×10³ /M/s

Structure (SMILES): CC(C)c1cnn2c(NCc3ccccc3)cc(NCCCCCCN)nc12
IC50 [7]: 47 µM | IC50 [8]: 4200 nM | IC50 [9]: 33 µM | IC50 [10]: 3 µM
